Here are results for three molecules from article PMC10989073, “Antineoplastic effect of compounds C14 and P8 on TNBC and radioresistant TNBC cells by stabilizing the K-Ras4B^G13D/PDE6δ complex” (Frontiers in Oncology, 2024).

What is called IC50 is the concentration that gives 50% inhibition.

Data set [1] deals with MDA-MB-231 cells. Kind of data set: Clonogenic assay. The note with it: MDA-MB-231, 10 to 12 days; C14 and P8 at IC50-48, cisplatin 100 µM, doxorubicin 0.5 µM. Type of data set: cell-based, human. On the procedure:
(§1) The principal aim of a clonogenic assay is to evaluate the effect of chemotherapy agents or new drugs by the measurement of their ability to arrest tumor cell division and their ability to develop new colonies after their exposure to these new drugs ([56]). Therefore, the colony formation ability of the cell lines MCF-10A, MDA-MB-231, and MDA-MB-231RR was evaluated after their exposure to the C14 and P8 compounds. In brief, breast cancer cell lines were cultured in 6-well plates (Corning), seeding 300 cells per well, and incubated at 37°C in 5% CO2 for 24 h. Compounds C14 and P8 were added at the maximum evaluated concentration IC50-48. As controls, cells without treatment and cells treated in the presence of a vehicle (DMSO at 0.66%) were employed (Sigma-Aldrich). […] After 10 days of treatment, cells were fixed with 4% PFA and stained with 0.1% crystal violet in citric acid (Sigma-Aldrich) for 15 minutes. Subsequently, the dye present in the cells was extracted using isopropanol and read at 570 nm in a Synergy-HTX microplate reader (BioTek). Each test was performed in triplicate. Data were expressed as % colonies relative to the untreated control ([56]).

For data set [2], the system named is MDA-MB-231RR cells. Kind of data set: Clonogenic assay. Type of data set: cell-based, human. The note with it: for reduction in colony formation: 10 to 12 days, C14 and P8 at IC50-48, cisplatin 100 µM, doxorubicin 0.5 µM. On the procedure: as §1
The subject of data set [3] is MDA-MB-231 cells. Kind of data set: Apoptosis/necrosis assay (Annexin V–propidium iodide, flow cytometry). In kind it is cell-based, human. Particulars: MDA-MB-231, 24 h; C14 and P8 at IC50-24, cisplatin 100 µM, doxorubicin 0.5 µM. On the procedure: (§2) To determine if the C14 and P8 compounds were able to evoke cell death by apoptosis or necrosis, cell lines MCF-10A, MDA-MB-231, and MDA-MB-231RR were treated at IC50-24 for 24 h. Apoptosis and necrosis were determined using the Apoptosis/Necrosis Detection kit (Abcam, Cambridge, UK) according to the manufacturer’s instructions. In brief, approximately 500,000 cells were seeded in 6-well plates (Corning) for 24 h. Then, each cell line was treated with the respective IC50-24 concentrations of C14 and P8. […] Cells were harvested and collected by centrifugation. All the samples were analyzed in triplicate using flow cytometry equipment FACSCalibur instrument (BD Biosciences, San Jose, CA, USA) at […] and 575-nm emission. Data analysis was performed using the FlowJo software (Tree Star Inc., Ashland, OR, USA). All experiments were performed in triplicate.
A general note: A flow cytometer gives signals particle by particle.

Data set [4] deals with MDA-MB-231RR cells. The data set is described as above. In kind it is cell-based, human. The note with it: 24 h, C14 and P8 at IC50-24, cisplatin 100 µM, doxorubicin 0.5 µM. On the procedure:
as §2

In another data set the test system is MCF-10A cells. Kind of data set: XTT cell viability assay and IC50 determination. Particulars: for IC50: XTT, ± SD; for concentration required to observe any effect on cell viability: MCF-10A control cells, statistical analysis. Type of data set: cell-based, human. On the procedure:
(§3) In order to evaluate the effect of the C14 and P8 compounds over MCF-10A, MCF-7, MDA-MB-231, and […] cell lines, the IC50 of those molecules was determined. In brief, all the cell lines were seeded at a density of 15,000 cells per well in a 96-well microtiter plate (Corning) in a corresponding growth medium for 24 h. Then, cells were treated with increasing concentrations (from 0 to 200 μM) of the C14 and P8 compounds (Enamine, Kyiv, Ukraine). As a positive control, increased concentrations of cisplatin (from 0 to 200 µM) (Accord, Mexico City, Mexico) were employed. Due to that, dimethyl sulfoxide (DMSO) was used as a vehicle, and its increased concentrations were evaluated as the negative control. All the samples were maintained under growth conditions for 24 h and 48 h. At the end of each time, cell viability was determined using the XTT Cell Proliferation Kit II (Roche Applied Science, Mannheim, Germany) following the manufacturer’s protocol. The absorbance was measured in a spectrophotometer Synergy-HTX (BioTek) at a wavelength of 450–500 nm with a reference wavelength of 650 nm. Cell proliferation was expressed as a percentage of viability [(absorbance of treated cells/absorbance of untreated cells × 100)] ± SD.
(In general: Tetrazolium assays rely on reduction of a dye to a coloured formazan, in cell work by metabolically active cells.)

Data set [5] relates to MDA-MB-231RR cells. Kind of data set: XTT cell viability assay and IC50 determination. In kind it is cell-based, human. Particulars: for IC50: XTT, ± SD. On the procedure: as §3
A further data set relates to MCF-7 cells. Kind of data set: XTT cell viability assay and IC50 determination. Type of data set: cell-based, human. Particulars: ± SD. On the procedure: as §3
Data set [6] is described as follows: Body weight and survival of xenograft mice under treatment. Type of data set: in vivo. On the procedure: Female immune-deficient Nu/Nu nude mice at 6–8 weeks of age ([…], Mexico City, Mexico) were maintained in pathogen-free conditions with irradiated chow. […] Body weight and tumor volume were measured every third day. Tumor sizes were calculated using the formula [(length × width2)/2] in mm.

Where [7] appears, read: MCF-10A, 24 h, read-out: IC50-24.
Where [8] appears, read: MCF-10A, 48 h, read-out: IC50-48.

Like-named read-outs stand apart in the source and are kept apart here. Where only a bound is given, the exact number is not on record here.

Consider `O=C(CN1CCN(c2cccc(Cl)c2)CC1)N[C@@H]1CCOc2ccccc21` [P8, 2-[4-(3-chlorophenyl)piperazin-1-yl]-N-[(4R)-chroman-4-yl]acetamide], for which the “reduction in colony formation” value with MDA-MB-231 cells [1] is “up to 95%”; in the data set with MDA-MB-231RR cells [2], “up to 99%”. Further, the values for the apoptosis cells with MDA-MB-231 cells [3] and with MDA-MB-231RR cells [4] were 48.5% and 72%, respectively. The results for the necrosis in the data set with MDA-MB-231 cells [3] and in the data set with MDA-MB-231RR cells [4] were 4.28% and 1.75%, respectively. The IC50 was greater than 200 µM in the data set on MCF-10A cells (Homo sapiens, MCF-10A, 24 h, read-out: IC50-24); greater than 200 µM with MCF-10A cells (Homo sapiens, MCF-10A, 48 h, read-out: IC50-48); 163 ± 16.8 µM in the data set on MDA-MB-231RR cells [5] (Homo sapiens, 24 h, read-out: IC50-24); 156 ± 28.4 µM with MDA-MB-231RR cells [5] (Homo sapiens, 48 h, read-out: IC50-48); 185 ± 15.3 µM with MCF-7 cells (Homo sapiens, MCF7, MCF-7, 24 h, read-out: IC50-24); 104 ± 49.8 µM in the data set with MCF-7 cells (Homo sapiens, MCF7, MCF-7, 48 h, read-out: IC50-48). The “concentration required to observe any effect on cell viability” value in the data set on MCF-10A cells is greater than 150 µM. Also, in the data set with MDA-MB-231RR cells [5] (48 h), the “concentration from which a significant inhibitory effect on viability is seen” value is recorded as no less than 10 µM. Moreover, in data set [6] (Nu/Nu mice, 30 mg/kg i.p. daily), the “tolerability (weight loss, overall survival)” value is “well tolerated”.
`N.N.[Cl][Pt][Cl]` [Cisplatin, cisplatin, reference compound]: the results for the “reduction in colony formation” value in the data set on MDA-MB-231 cells [1] and in the data set with MDA-MB-231RR cells [2] were “significant reduction” and 99%, respectively. Also, the results for the apoptosis cells in the data set on MDA-MB-231 cells [3] and in the data set on MDA-MB-231RR cells [4] were 13.71% and “up to 19.13%”, respectively. In addition, the necrosis was 2.14% with MDA-MB-231 cells [3] and 0.40% with MDA-MB-231RR cells [4]. Moreover, the IC50 in the data set with MCF-10A cells (setting [7]) was 12 µM; in the data set on MCF-10A cells (setting [8]), 5.9 ± 1.6 µM; in the data set on MDA-MB-231RR cells [5] (24 h, read-out: IC50-24) it was 200 µM; with MDA-MB-231RR cells [5] (48 h, read-out: IC50-48), 104 ± 8.7 µM; with MCF-7 cells (MCF-7, 24 h, read-out: IC50-24), 150 ± 32.1 µM; in the data set with MCF-7 cells (MCF-7, 48 h, read-out: IC50-48), 67.3 ± 20.6 µM. For the same molecule, in the data set with MCF-10A cells (MCF-10A, at low concentrations), the “reduction of cellular viability” value is “more than 90%”. The survival of mice in data set [6] (Nu/Nu mice, cisplatin 6 mg/kg i.p. daily) is no more than 6 days. In addition, the weight decrease in data set [6] (Nu/Nu mice, cisplatin 6 mg/kg i.p. daily, within the first 5 days of treatment) is reported as greater than 20%.
In the case of `CN(CC(=O)NC1CCOc2ccccc21)Cc1cccc(Cl)c1` (stereo not shown) [C14, 2-[(3-chlorophenyl)-methyl-methyl-amino]-N-croman-4-yl-acetamide], the “reduction in colony formation” value is given as “up to 95%” with MDA-MB-231 cells [1] and “up to 90%” in the data set with MDA-MB-231RR cells [2]. For the same molecule, the colonies persisted with MDA-MB-231RR cells [2] (C14 at IC50-48) was roughly 10%. Moreover, the apoptosis cells result is listed as “up to 18.52%” in the data set on MDA-MB-231 cells [3] and “up to 21.62%” with MDA-MB-231RR cells [4]. Further, the results for the necrosis in the data set on MDA-MB-231 cells [3] and in the data set with MDA-MB-231RR cells [4] were 0.56% and 0.13%, respectively. For the same molecule, in the data set on MCF-10A cells, the “concentration required to observe any effect on cell viability” value is “higher than 100 µM”. Also, the IC50 with MCF-10A cells (setting [7]) is greater than 200 µM; in the data set on MCF-10A cells (setting [8]), greater than 200 µM; with MDA-MB-231RR cells [5] (24 h, read-out: IC50-24) it was 128 ± 2.6 µM; in the data set on MDA-MB-231RR cells [5] (48 h, read-out: IC50-48), 70.6 ± 3.5 µM; with MCF-7 cells (MCF-7, 24 h, read-out: IC50-24), 174 ± 19 µM; in the data set with MCF-7 cells (MCF-7, 48 h, read-out: IC50-48), 134 ± 10.5 µM. In addition, in the data set with MDA-MB-231RR cells [5] (48 h), the “concentration from which a significant inhibitory effect on viability is seen” value is reported as no less than 30 µM. Besides, the “tolerability (weight loss, overall survival)” value in data set [6] (mouse, in vivo, ip, 30 mg/kg) is on record as “well tolerated”.
